Values after ≈ are worked out from the molar mass of the structure shown. “Also recorded” adds a separate entry of the source. Where two headings read alike, the source gives them in different places.
Tests used:
[1] = tested on: KP-L-RY leukemia cell line; assay: MTT viability assay; format: cell-based; details: 72 h, differing concentrations
Procedure: All cell lines were maintained in RPMI 1640+10% FCS. 100 μl aliquots of cell suspension (5×10^5 cells/ml) were cultured in flat-bottomed 96 well plates in the presence of different concentrations of peptides. After 72 h incubation at 37° C. in humidified air containing 5% CO2, viable cell number was determined by MTT assay as follows: 10 μl of 3-[4,5-dimethylthiazol-2-yl]-2,5-diphenyl tetrazolium bromide (MTT) (5 mg/ml concentration) (Sigma) was added to each well and incubated further for 6 h. Formazan crystals that are formed during incubation were dissolved in 100 μl of acidified isopropanol. The optical density at 550 nm (which is linearly related to the number of viable cells) was measured using a plate spectrophotometer. Growth characteristics of the leukemia cell lines were also determined for cells by Trypan Blue exclusion.

B1 leukemia cells = assay: CaspACE FITC-VAD-FMK caspase assay; format: cell-based; details: 50 μg peptide, 24 h / overnight
Procedure: To examine an additional marker of apoptosis, apoptosis assays utilizing the FITC-labeled VAD-FMK caspase substrate, CaspACE FITC-VAD-FMK (Promega) were performed according to the manufacturer's instructions. Caspase activation in individual cells was monitored by binding of the caspase substrate, followed by flow cytometry analysis. Briefly, B1 leukemia cells were suspended in RPMI 1640+10% FCS at a concentration of 5×10^5 cells/ml and treated with 50 μg PFWT, PFmut or an equal volume of DMSO. Following an overnight incubation at 37° C., the fluorescent caspase substrate CaspACE FITC-VAD-FMK marker was added to a final concentration of 10 μM and incubated for 20 minutes at 37° C. under light protective conditions. The cells were pelletted, washed, and resuspended in PBS. Cells were then analyzed by flow cytometry using a Becton Dickinson FACS Vantage flow cytometer. A 488 nm wavelength argon-ion laser beam was used for excitation, and the emission was measured using a 530 nm filter.

B1 cells = assay: Cell cycle analysis (PI DNA staining, flow cytometry); format: cell-based; details: for proportion of cells in G1 / proportion of cells in G2 / proportion of cells in S: G1:S:G2 ratio
Procedure: Leukemia cells were subjected to cell cycle analyses using a Cellular DNA flow cytrometric analysis kit (Roche) according to manufacturers' protocols to determine if PFWT might also induce cell cycle arrest. B1 cells were treated with peptides as outlined above and fixed. For DNA staining, cells were harvested and washed and resuspended with PBS at a concentration of 10^6 cells/ml. 1 unit/ml of RNase and 50 μg/mI of PI was added to this suspension and incubated at 37° C. for 1 hr and analyzed by flow cytometry using Coulter benchtop flow cytometer.

[2] = tested on: hematopoietic progenitor cells (peripheral blood stem cells); assay: Methylcellulose clonogenic assay; format: cell-based, human; details: 100 μg/ml, 72 h incubation; FIG. 4A
Description: PFWT is toxic to several leukemia cell lines raising the possibility that normal hematopoietic cells are also sensitive to the peptide. To verify whether PFWT has any effect on hematopoietic stem cells, standard methylcellulose-based assays were employed to enumerate the colony-forming potential of human peripheral blood and bone marrow stem cells.
Cryopreserved bone marrow and peripheral blood hematopoietic progenitor cells from healthy donors were thawed and diluted with M199 media (Invitrogen) to give a final DMSO concentration of 0.1%. Cells were incubated at room temperature for 2 h for equilibration. Nucleated cells at a concentration of 5×10^5 cells/ml were then incubated with the peptides PFWT or PFmut or DMSO control vehicle for 48 or 72 h. After the incubation period, 400 μl of the cell suspensions were suspended in 3.6 ml MethoCult GF H4434 methylcellulose media containing cytokines (erythropoietin, G-CSF, GM-CSF, stem cell factor, IL-3 and IL-6) (Stem Cell Technologies) and transferred to 25 mm plates with grids. The cells were plated in triplicate and incubated for 2 weeks at 37° C. with 5% CO2 in a humidified incubator. After 2 weeks, the number of colonies (>50 cells) per plate was counted under an inverted light microscope as a measure of progenitor cell viability.

Solubility = format: physicochemical
Procedure: PFWT and PFmut are soluble in phosphate buffered saline (PBS) at a concentration of 1 mg/ml and in dimethylsulfoxide (DMSO) at >50 mg/ml (data not shown). In the initial experiments, peptides were dissolved in PBS but were dissolved in DMSO for the majority of the subsequent experiments.

[3] = dimethylsulfoxide (DMSO), read-out: solubility in dimethylsulfoxide (DMSO)
[4] = phosphate buffered saline (PBS), read-out: solubility in phosphate buffered saline (PBS)

SMILES	cell viability [1]	caspase activation (fluorescence intensity) (B1 leukemia cells)	sub-G1 population (of all events) (B1 cells) [%]	proportion of cells in G1 (B1 cells)	proportion of cells in G2 (B1 cells)	proportion of cells in S (B1 cells)	colony forming potential (colonies >50 cells after 14 days) [2]	solubility (Solubility; [3]) [µg/mL]	solubility (Solubility; [4]) [µg/mL]
CC[C@H](C)[C@H](NC(=O)[C@H](CCCCN)NC(=O)[C@@H](NC(=O)[C@H](Cc1c[nH]c2ccccc12)NC(=O)[C@H](CC(C)C)NC(=O)[C@H](CCCCN)NC(=O)[C@H](CCCCN)NC(=O)[C@H](Cc1c[nH]c2ccccc12)NC(=O)[C@H](CCCCN)NC(=O)[C@H](CCSC)NC(=O)[C@H](CCCNC(=N)N)NC(=O)[C@H](CCCNC(=N)N)NC(=O)[C@H](CC(N)=O)NC(=O)[C@H](CCC(N)=O)NC(=O)[C@H](Cc1ccccc1)NC(=O)[C@H](Cc1c[nH]c2ccccc12)NC(=O)[C@H](CCCCN)NC(=O)[C@@H](NC(=O)[C@H](CCC(N)=O)NC(=O)[C@@H](N)CCCNC(=N)N)[C@@H](C)CC)C(C)C)C(=O)N[C@@H](CC(=O)O)C(=O)N[C@@H](CC(C)C)C(=O)N[C@@H](CC(=O)O)C(=O)N[C@@H](CC(C)C)C(=O)N[C@@H](CC(C)C)C(=O)N[C@@H](CO)C(=O)N[C@@H](CCCNC(=N)N)C(=O)N[C@H](C(=O)N1CCC[C@H]1C(=O)O)C(C)C [PFWT]	diminished; also recorded: inhibits	caspases are activated	51	47	8	45	neither PFWT nor PFmut have any significant effect; also recorded: does not impair their colony forming potential	> 50000	1000 (≈ 264 µM)
CC[C@H](C)[C@H](NC(=O)[C@H](CCC(N)=O)NC(=O)[C@@H](N)CCCNC(=N)N)C(=O)N[C@@H](CCCCN)C(=O)N[C@@H](Cc1c[nH]c2ccccc12)C(=O)N[C@@H](Cc1ccccc1)C(=O)N[C@@H](CCC(N)=O)C(=O)N[C@@H](CC(N)=O)C(=O)N[C@@H](CCCNC(=N)N)C(=O)N[C@@H](CCCNC(=N)N)C(=O)N[C@@H](CCSC)C(=O)N[C@@H](CCCCN)C(=O)N[C@@H](Cc1c[nH]c2ccccc12)C(=O)N[C@@H](CCCCN)C(=O)N[C@@H](CCCCN)C(=O)N[C@@H](CC(C)C)C(=O)N[C@@H](Cc1c[nH]c2ccccc12)C(=O)N[C@@H](CCC(=O)O)C(=O)N[C@@H](CCCCN)C(=O)N[C@@H](CO)C(=O)N[C@@H](CC(=O)O)C(=O)N[C@@H](CC(C)C)C(=O)N[C@@H](CC(=O)O)C(=O)N[C@@H](CC(C)C)C(=O)N[C@@H](CC(C)C)C(=O)N[C@@H](CO)C(=O)N[C@@H](CCCNC(=N)N)C(=O)N[C@H](C(=O)N1CCC[C@H]1C(=O)O)C(C)C [PFmut]	much less sensitive	little caspase activation can be detected		52	8	40	neither PFWT nor PFmut have any significant effect	> 50000	1000 (≈ 264 µM)

Reference: US7189691B2, “Methods and compositions for treating leukemia” (The Administrators of the Tulane Educational Fund, priority 2004, dated 2007)
